Where two headings read alike, the source gives them in different places.
How the values were obtained:
OC43 = OC43 Huh7 CPE assay (cytopathic experiment); assay type: cell-based, coronavirus OC43 (HCoV-OC43); conditions: for EC50: read-out: OC43 Huh7 CPE assay (μM) EC50; for EC90: read-out: OC43 Huh7 CPE assay (μM) EC90
Procedure, shortened: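 Cells seeded overnight, then two-fold diluted compound added with virus; viability read by CellTiter-Glo after 3 days (229E, MRC5 cells) or 7 days (OC43, Huh7 cells). EC50/EC90 from % inhibition of virus-induced CPE; CC50 from parallel uninfected cytotoxicity runs, by nonlinear fitting.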

229E = 229E MRC5 CPE assay (cytopathic experiment); assay type: cell-based, coronavirus 229E (HCoV-229E)
[1] = Betacoronavirus 1, Huh-7, 168 h, Huh7 cells, OC43 virus, 7 days, Cell Titer Glo
[2] = Human coronavirus 229E, MRC5, 72 h; read-out: 229E MRC5 CPE assay (μM) EC50
[3] = Human coronavirus 229E, MRC5, 72 h; read-out: 229E MRC5 CPE assay (μM) EC90
[4] = Betacoronavirus 1, OC43, Huh-7, 168 h
[5] = Human coronavirus 229E, MRC5, 72 h, read-out: 229E MRC5 CPE assay (μM) EC50
[6] = Human coronavirus 229E, MRC5, 72 h, read-out: 229E MRC5 CPE assay (μM) EC90

| SMILES | EC50 (OC43; [1]) [µM] | EC90 (OC43; [1]) [µM] | EC50 (229E; [2]) [µM] | EC90 (229E; [3]) [µM] | EC50 (OC43; [4]) [µM] | EC90 (OC43; [4]) [µM] | EC50 (229E; [5]) [µM] | EC90 (229E; [6]) [µM] |
| --- | --- | --- | --- | --- | --- | --- | --- | --- |
| CCC(CC)COC(=O)[C@H](C)N[P@@](=O)(OC[C@H]1O[C@@](C#N)(c2ccc3c(N)ncnn23)[C@H](O)[C@@H]1O)Oc1ccc(C[C@H](NC(=O)OCc2ccccc2)C(=O)OC2CCCC2)cc1 [Compound 218] | > 0.5 | > 0.5 | > 0.5 | > 0.5 | – | – | – | – |
| CCC(CC)COC(=O)[C@H](C)N[P@](=O)(OC[C@H]1O[C@@](C#N)(c2ccc3c(N)ncnn23)[C@H](O)[C@@H]1O)Oc1ccc(C[C@H](NC(=O)OCc2ccccc2)C(=O)OC2CCCC2)cc1 [Compound 219] | > 0.5 | > 0.5 | > 0.5 | > 0.5 | – | – | – | – |
| N#C[C@@]1(c2ccc3c(N)ncnn23)O[C@@H]2CO[P@@](=O)(Oc3ccccc3)O[C@H]2[C@H]1O [Compound 220] | – | – | > 0.5 | > 0.5 | > 0.5 | > 0.5 | – | – |
| N#C[C@@]1(c2ccc3c(N)ncnn23)O[C@@H]2CO[P@](=O)(Oc3ccccc3)O[C@H]2[C@H]1O [Compound 221] | – | – | > 0.5 | > 0.5 | > 0.5 | > 0.5 | – | – |
| CCCC(CCC)C(=O)OCO[P@@](=O)(OC[C@H]1O[C@@](C#N)(c2ccc3c(N)ncnn23)[C@H](O)[C@@H]1O)Oc1ccccc1 [Compound 222] | – | – | 0.1 to 0.5 | > 0.5 | > 0.5 | > 0.5 | – | – |
| CCCC(CCC)C(=O)OCO[P@](=O)(OC[C@H]1O[C@@](C#N)(c2ccc3c(N)ncnn23)[C@H](O)[C@@H]1O)Oc1ccccc1 [Compound 223] | – | – | 0.1 to 0.5 | > 0.5 | > 0.5 | > 0.5 | – | – |
| CCCC(CCC)C(=O)OCO[P@@](=O)(OC[C@H]1O[C@@](C#N)(c2ccc3c(N)ncnn23)[C@H](O)[C@@H]1O)Oc1cccc2ccccc12 [Compound 224] | – | – | > 0.5 | > 0.5 | > 0.5 | > 0.5 | – | – |
| CCCC(CCC)C(=O)OCO[P@](=O)(OC[C@H]1O[C@@](C#N)(c2ccc3c(N)ncnn23)[C@H](O)[C@@H]1O)Oc1cccc2ccccc12 [Compound 225] | – | – | > 0.5 | > 0.5 | > 0.5 | > 0.5 | – | – |
| CCCC(CCC)C(=O)OCO[P@](=O)(OC[C@H]1O[C@@](C#N)(c2ccc3c(N)ncnn23)[C@H](O)[C@@H]1O)Oc1ccc(C[C@H](NC(=O)OCc2ccccc2)C(=O)OC2CCCC2)cc1 [Compound 226] | – | – | > 0.5 | > 0.5 | > 0.5 | > 0.5 | – | – |
| CCCC(CCC)C(=O)OCO[P@@](=O)(OC[C@H]1O[C@@](C#N)(c2ccc3c(N)ncnn23)[C@H](O)[C@@H]1O)Oc1ccc(C[C@H](NC(=O)OCc2ccccc2)C(=O)OC2CCCC2)cc1 [Compound 227] | – | – | > 0.5 | > 0.5 | > 0.5 | > 0.5 | – | – |
| N#C[C@@]1(c2ccc3c(N)ncnn23)O[C@@H]2CO[P@](=O)(OCOC(=O)Oc3ccccc3)O[C@H]2[C@H]1O [Compound 228] | – | – | – | – | > 0.5 | > 0.5 | > 0.5 | > 0.5 |
| N#C[C@@]1(c2ccc3c(N)ncnn23)O[C@@H]2CO[P@@](=O)(OCOC(=O)Oc3ccccc3)O[C@H]2[C@H]1O [Compound 229] | – | – | – | – | > 0.5 | > 0.5 | > 0.5 | > 0.5 |
| CCO[P@@]1(=O)OC[C@H]2O[C@@](C#N)(c3ccc4c(N)ncnn34)[C@H](O)[C@@H]2O1 [Compound 230] | > 0.5 | > 0.5 | > 0.5 | > 0.5 | – | – | – | – |
| CCO[P@]1(=O)OC[C@H]2O[C@@](C#N)(c3ccc4c(N)ncnn34)[C@H](O)[C@@H]2O1 [Compound 231] | > 0.5 | > 0.5 | > 0.5 | > 0.5 | – | – | – | – |
| [2H]c1cc([C@]2(C#N)O[C@@H]3CO[P@](=O)(OCC)O[C@H]3[C@H]2O)n2ncnc(N)c12 [Compound 232] | > 0.5 | > 0.5 | > 0.5 | > 0.5 | – | – | – | – |
| [2H]c1cc([C@]2(C#N)O[C@@H]3CO[P@@](=O)(OCC)O[C@H]3[C@H]2O)n2ncnc(N)c12 [Compound 233] | > 0.5 | > 0.5 | > 0.5 | > 0.5 | – | – | – | – |
| CC(C)(C)C(=O)SCCO[P@@]1(=O)OC[C@H]2O[C@@](C#N)(c3ccc4c(N)ncnn34)[C@H](O)[C@@H]2O1 [Compound 236] | – | – | – | – | < 0.1 | < 0.1 | < 0.1 | < 0.1 |
| [2H]c1cc([C@]2(C#N)O[C@@H]3CO[P@](=O)(OCCSC(=O)C(C)(C)C)O[C@H]3[C@H]2O)n2ncnc(N)c12 [Compound 238] | – | – | – | – | < 0.1 | < 0.1 | < 0.1 | < 0.1 |
| [2H]c1cc([C@]2(C#N)O[C@@H]3CO[P@@](=O)(OCCSC(=O)C(C)(C)C)O[C@H]3[C@H]2O)n2ncnc(N)c12 [Compound 239] | – | – | – | – | < 0.1 | 0.1 to 0.5 | < 0.1 | < 0.1 |
| N#C[C@@]1(c2ccc3c(N)ncnn23)O[C@@H]2COP(=O)(O)O[C@H]2[C@H]1OC(=O)CCCc1ccccc1 [Compound 260] | – | – | – | – | > 0.5 | > 0.5 | 0.1 to 0.5 | 0.1 to 0.5 |
| N#C[C@@]1(c2ccc3c(N)ncnn23)O[C@@H]2CO[P@](=O)(OCOC(=O)C3CCCC3)O[C@H]2[C@H]1O [Compound 261] | – | – | – | – | > 0.5 | > 0.5 | 0.1 to 0.5 | > 0.5 |
| N#C[C@@]1(c2ccc3c(N)ncnn23)O[C@@H]2CO[P@@](=O)(OCOC(=O)C3CCCC3)O[C@H]2[C@H]1O [Compound 262] | – | – | – | – | > 0.5 | > 0.5 | 0.1 to 0.5 | > 0.5 |
| N#C[C@@]1(c2ccc3c(N)ncnn23)O[C@@H]2CO[P@](=O)(OCOC(=O)CCCc3ccccc3)O[C@H]2[C@H]1O [Compound 263] | – | – | – | – | 0.1 to 0.5 | > 0.5 | < 0.1 | < 0.1 |
| N#C[C@@]1(c2ccc3c(N)ncnn23)O[C@@H]2CO[P@@](=O)(OCOC(=O)CCCc3ccccc3)O[C@H]2[C@H]1O [Compound 264] | – | – | – | – | > 0.5 | > 0.5 | < 0.1 | 0.1 to 0.5 |
| N#C[C@@]1(c2ccc3c(N)ncnn23)O[C@H](COP(=O)(OCOC(=O)CCCc2ccccc2)OCOC(=O)CCCc2ccccc2)[C@@H](O)[C@H]1O [Compound 266] | – | – | – | – | > 0.5 | > 0.5 | > 0.5 | > 0.5 |
| CC(C)OC(=O)C(C)(C)N[P@@](=O)(OCOC(=O)C1CCCC1)OC[C@H]1O[C@@](C#N)(c2ccc3c(N)ncnn23)[C@H](O)[C@@H]1O [Compound 267] | – | – | – | – | > 0.5 | > 0.5 | > 0.5 | > 0.5 |
| CC(C)OC(=O)C(C)(C)N[P@](=O)(OCOC(=O)C1CCCC1)OC[C@H]1O[C@@](C#N)(c2ccc3c(N)ncnn23)[C@H](O)[C@@H]1O [Compound 268] | – | – | – | – | > 0.5 | > 0.5 | > 0.5 | > 0.5 |
| CC(C)OC(=O)C(C)(C)N[P@@](=O)(OCOC(=O)CCCc1ccccc1)OC[C@H]1O[C@@](C#N)(c2ccc3c(N)ncnn23)[C@H](O)[C@@H]1O [Compound 269] | – | – | – | – | > 0.5 | > 0.5 | > 0.5 | > 0.5 |
| CC(C)OC(=O)C(C)(C)N[P@](=O)(OCOC(=O)CCCc1ccccc1)OC[C@H]1O[C@@](C#N)(c2ccc3c(N)ncnn23)[C@H](O)[C@@H]1O [Compound 270] | – | – | – | – | > 0.5 | > 0.5 | > 0.5 | > 0.5 |
| N#C[C@@]1(c2ccc3c(N)ncnn23)O[C@H](COP(=O)(OCOC(=O)OC2CCC2)OCOC(=O)OC2CCC2)[C@@H](O)[C@H]1O [Compound 276] | – | – | – | – | 0.1 to 0.5 | > 0.5 | 0.1 to 0.5 | > 0.5 |
